Reference: patent US5935824A, “Protein expression system” (Technologene, Inc., priority 1996, dated 1999)
One block for each compound: values may come before it. Residues, ends and D or L forms follow the SMILES beside them. *: point of attachment. Cbz = O=C(OCc1ccccc1)*

Biological target: T1, carboxypeptidase Y (CPD-Y) immobilized to Acti-Disk (Saccharomyces cerevisiae, UniProt P00729)
T1 construct: purchased Sigma
T1 sequence (P00729 112-532): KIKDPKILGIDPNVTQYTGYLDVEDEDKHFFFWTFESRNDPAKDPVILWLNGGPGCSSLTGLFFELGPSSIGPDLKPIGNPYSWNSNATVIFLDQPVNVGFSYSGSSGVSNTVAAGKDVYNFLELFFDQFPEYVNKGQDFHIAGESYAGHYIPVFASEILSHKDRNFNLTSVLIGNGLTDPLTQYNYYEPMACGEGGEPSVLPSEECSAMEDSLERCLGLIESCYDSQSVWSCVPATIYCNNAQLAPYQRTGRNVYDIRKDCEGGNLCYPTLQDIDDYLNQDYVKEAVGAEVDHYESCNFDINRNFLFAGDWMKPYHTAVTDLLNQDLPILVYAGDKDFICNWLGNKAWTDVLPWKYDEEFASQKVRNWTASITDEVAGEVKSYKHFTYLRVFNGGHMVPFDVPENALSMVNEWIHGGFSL
Experiment: Flow digestion of N-CBZ-peptides through CPD-Y Acti Disk, ninhydrin assays
Type: biochemical, yeast
Procedure: The reported Km values for CPD-Y have been generated using extremely low enzyme concentration compared to substrate concentration. The value for Km represents the concentration of substrate that will produce 1/2 the maximum velocity for the initial reaction rates. During the testing of the immobilized CPD-Y enzyme disks with various dipeptide substrates, the maximum flow rate that can be achieved without any substantial increase in the pressure of the solution, is 4 ml/min. At this flow rate, the substrate remains within the immobilized enzyme matrix for 1.74 seconds. This value is determined by dividing the internal porous volume of the matrix to which the enzyme is immobilized (115 μL/4000 μL, min^-1). Due to the high concentration of enzyme (565 μM) within the limited volume of the immobilization matrix (115 μl) a very high percentage of the substrate was hydrolyzed even at these short incubation times which prevents the accurate determination of actual Km values for the individual substrates.
Standard ninhydrin assay: Hydrolysis of the non-proline containing N-CBZ-dipeptides was determined by assaying the amount of free amino acid released by a colorometric ninhydrin reaction at a pH greater than 5.2. One gram of ninhydrin was dissolved in 50 ml ethylene glycol monomethyl ether containing 0.03% ascorbic acid. This ninhydrin solution was made fresh daily. A 0.4 M Citrate buffer, pH 5.2 was made by adjusting the pH of ACS grade citric acid with NaOH. Two hundred microliter samples at pH greater than 5.2 were mixed with an equal volume of ninhydrin reagent and incubated at 100° C. for 20 minutes. When 200 μl samples below pH 5.2 were to be assayed, 100 μl of 0.4 M Citrate buffer was included prior to heating the sample to 100° C. Samples were then cooled to room temperature and 600 μl of 60% ethanol was added as the diluent and the absorbance was read at 570 nm on a Beckman DU 7000 spectrophotometer.
Proline ninhydrin assay: Hydrolysis of proline-containing N-CBZ-dipeptides were measured with a modified version of the assay described by Magne and Larher [Anal. Biochem., 200:115 (1982)]. Briefly a ninhydrin reagent containing 2% ninhydrin prepared in glacial acetic acid:water 60:40 (v/v) was prepared. Five hundred microliter samples were combined with 500 μl glacial acetic acid and 500 μl ninhydrin reagent was added. The sample was subsequently boiled for one hour. One milliliter of analytical grade toluene was then used to extract the chromophore and the absorbance was read at 520 nm.
Concentrations of N-CBZ-Ala-Pro ranging from 4 mM to 100 μM (100 mM citrate, 100 mM NaCl, pH 5.75) were passed through a CPD-Y Acti Disk at a flow rate of 2.0 ml/min. Reaction rates were determined by assaying the appropriate dilutions of the various substrates using the above described proline ninhydrin assay specific of free proline to obtain […] readings below 1.5.
N-CBZ-Ala-Pro (dissolved in 100 mM citrate, 100 mM NaCl, pH 5.75) at a concentration of 200 μM, was passed through the same CPD-Y Acti Disk at flow rates ranging from 2 ml/min to 175 μl/ min. Five milliliters of each specific flow rate were collected and assayed by the proline ninhydrin assay in order to determine the relative percentage of substrate that was hydrolyzed using the various flow rates. In order to characterize the amount of substrate hydrolyzed per unit of time, flow rates are converted to amount of time that the substrate is within the immobilized enzyme matrix (Acti Disk). The amount of time the substrate is within the immobilized enzyme matrix at a given flow rate is shown below in Table 6.
The first order rate constant determined for the N-CBZ-Ala-Pro substrate is applicable only as a reference for comparison to other N-CBZ-dipeptide first order rate constants. N-CBZ-Phe-Ala is the substrate used by Sigma to characterize the activity of CPD-Y at 100 units per milligram, 1 unit can hydrolyze 1 μmol of N-CBZ-Phe-Ala per minute. […]

[1] = flow rate 2 ml/min, 3.45 seconds, pH 5.75, ~25° C.
[2] = 200 μM substrate, varied flow rates
[3] = 200 μM substrate, 2 × 2 ml/min (two passes)
[4] = 200 μM substrate, flow rate 0.25 ml/min, one pass
[5] = 200 μM substrate, flow rate 1.0 ml/min, one pass
[6] = 200 μM substrate, flow rate 2.0 ml/min, one pass
[7] = second flow at 2.0 ml/min, 3.45 seconds

K^1 min^-1 (first order reaction constant) [1]: 27.52 min⁻¹ | Log S/S-P [1]: 0.688
SMILES: CC(C)C[C@H](NC(=O)[C@H](C)NC(=O)OCc1ccccc1)C(=O)O [N-CBZ-Ala-Leu] (Cbz-Ala-Leu-OH)

First-order rate constant (200 μM substrate, converted from seconds^-1): 3.84 min⁻¹ | Log S/S-P (200 μM substrate, flow rate 175 μl/min, 36.4 seconds): 1.541 | Log S/S-P (200 μM substrate, flow rate 350 μl/min, 19.7 seconds): 1.022 | Log S/S-P (200 μM substrate, flow rate 1000 μl/min, 6.90 seconds): .672 | Log S/S-P (200 μM substrate, flow rate 2000 ml/min (so in the source), 3.45 seconds): .560 | First-order rate constant [2]: 4.14 min⁻¹ | Slope of log [S]/[S]-[P] over seconds [2]: 0.030 | Log S/S-P (500 μM substrate, 1 pass at 2000 μl/min, 3.45 sec): .614 | Log S/S-P (500 μM substrate, 2 passes at 2000 μl/min, 6.90 sec): 1.236 | Log S/S-P (500 μM substrate, 3 passes at 2000 μl/min, 10.35 sec): 1.870 | Slope of log [S]/[S]-[P] versus seconds (500 μM substrate, repeated passes at 2000 μl/min): 0.199 | K^1 min^-1 (first order reaction constant) [1]: 22.40 min⁻¹ | Log S/S-P [1]: 0.560 | Velocity (substrate concentration 100 μM, flow rate 2.0 ml/min, pH 5.75): 170 nM/min | Velocity (substrate concentration 200 μM, flow rate 2.0 ml/min, pH 5.75): 344 nM/min | Velocity (substrate concentration 300 μM, flow rate 2.0 ml/min, pH 5.75): 503 nM/min | Velocity (substrate concentration 500 μM, flow rate 2.0 ml/min, pH 5.75): 846 nM/min | Velocity (substrate concentration 1000 μM, flow rate 2.0 ml/min, pH 5.75): 1684 nM/min
SMILES: C[C@H](NC(=O)OCc1ccccc1)C(=O)N1CCC[C@H]1C(=O)O [N-CBZ-Ala-Pro] (Cbz-Ala-Pro-OH)

K^1 min^-1 (first order reaction constant) [1]: 24.24 min⁻¹ | Log S/S-P [1]: 0.606
SMILES: O=C(O)CC[C@H](NC(=O)OCc1ccccc1)C(=O)N[C@@H](Cc1ccc(O)cc1)C(=O)O [N-CBZ-Glu-Tyr] (Cbz-Glu-Tyr-OH)

Concentration of amino acids released, standard ninhydrin assay [3]: 353.4 µM | Concentration of proline released, proline ninhydrin assay [3]: 195.6 µM | Concentration of amino acids released, standard ninhydrin assay [4]: 384.0 µM | Concentration of proline released, proline ninhydrin assay [4]: 212.5 µM | Concentration of amino acids released, standard ninhydrin assay [5]: 315.9 µM | Concentration of proline released, proline ninhydrin assay [5]: 196.5 µM | Concentration of amino acids released, standard ninhydrin assay [6]: 265.7 µM | Concentration of proline released, proline ninhydrin assay [6]: 197.0 µM | Kinetic constant k for the remaining Pro-Leu bond [7]: 18.39 | Product released in second flow [7]: 87.7 µM
SMILES: CC(C)C[C@H](NC(=O)[C@@H]1CCCN1C(=O)CNC(=O)OCc1ccccc1)C(=O)N[C@@H](C)C(=O)N1CCC[C@H]1C(=O)O [N-CBZ-Gly-Pro-Leu-Ala-Pro] (Cbz-GPLAP-OH)

K^1 min^-1 (first order reaction constant) [1]: 0.160 min⁻¹ | Log S/S-P [1]: 0.004
SMILES: O=C(NCC(=O)N1CCC[C@H]1C(=O)O)OCc1ccccc1 [N-CBZ-Gly-Pro] (Cbz-Gly-Pro-OH)

Concentration of released alanine (20 mM substrate, flow rate 4 ml/minute): 10.49 mM | Rate of digestion (20 mM substrate, flow rate 4 ml/minute, pH 5.75): 41.96 µmol/min
SMILES: C[C@H](NC(=O)[C@H](Cc1ccccc1)NC(=O)OCc1ccccc1)C(=O)O [N-CBZ-Phe-Ala]

K^1 min^-1 (first order reaction constant) [1]: 1.480 min⁻¹ | Log S/S-P [1]: 0.037
SMILES: O=C(O)[C@H](Cc1ccccc1)NC(=O)[C@@H]1CCCN1C(=O)OCc1ccccc1 [N-CBZ-Pro-Phe] (Cbz-Pro-Phe-OH)
